In patent publication US4416884A, “Piperazinylbenzoheterocyclic compounds” (Otsuka Pharmaceutical Co., Ltd., priority 1978, dated 1983):
Values after ≈ are worked out from the molar mass of the structure shown. Read-outs that look alike come from different tables or passages of the source.

Columns and labels:
Assay type in all cases: cell-based
[1] = system: Test Organism 17 (Pseudomonas putida IFO 13696); test: influence of the addition of horse serum on the MIC
[2] = system: Test Organism 16 (Pseudomonas maltophilia IFO 12692); test: as above; details: Stenotrophomonas maltophilia, read-out: Minimum Inhibitory Concentration
[3] = system: Test Organism 21 (Bacillus subtilis PCI 219); test: as above
[4] = system: Test Organism 27 (Streptococcus pneumoniae Type III); test: as above
[5] = system: Test Organism 1 (Escherichia Coli NIHJ); test: as above
[6] = system: Test Organism 2 (Escherichia Coli NIHJ JC-2 (IFO 12734)); test: as above
[7] = system: Corinebacterium diphteriae; test: antimicrobial activity, serial dilution method on agar plate; details: read-out: Minimum Inhibitory Concentration
Method in brief: (§1)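 Serial dilution on Heart Infusion agar; inoculum 1×10^8 cells/ml (O.D. 660 mμ 0.07–0.16) or 1×10^6 cells/ml diluted from it; MIC in mcg/ml.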

[8] = system: Enterobacter aerogenes IFO 12979; test: as above; details: Klebsiella aerogenes, read-out: Minimum Inhibitory Concentration
Method in brief: as §1

[9] = system: Staphylococcus aureus FDA 209 P; test: as above; details: read-out: Minimum Inhibitory Concentration
Method in brief: as §1

[10] = system: Pseudomonas aeruginosa ATCC 10145; test: as above; details: read-out: Minimum Inhibitory Concentration
Method in brief: as §1

[11] = system: Pseudomonas aeruginosa NCTC 10490; test: as above; details: read-out: Minimum Inhibitory Concentration
Method in brief: as §1

[12] = system: Streptococcus pneumoniae Type II; test: as above; details: inoculum 1 × 10^8 cells/ml, read-out: Minimum Inhibitory Concentration
Method in brief: as §1

[13] = system: Yersinia enterocolitica 0-5; test: as above; details: Yersinia enterocolitica, 05; inoculum 1 × 10^8 cells/ml; read-out: Minimum Inhibitory Concentration
[14] = horse serum 0%, inoculum 10^6, read-out: Minimum Inhibitory Concentration
[15] = horse serum 0%, inoculum 10^8, read-out: Minimum Inhibitory Concentration
[16] = horse serum 10%, inoculum 10^6, read-out: Minimum Inhibitory Concentration
[17] = horse serum 10%, inoculum 10^8, read-out: Minimum Inhibitory Concentration
[18] = horse serum 20%, inoculum 10^6, read-out: Minimum Inhibitory Concentration
[19] = horse serum 20%, inoculum 10^8, read-out: Minimum Inhibitory Concentration
[20] = horse serum 40%, inoculum 10^6, read-out: Minimum Inhibitory Concentration
[21] = horse serum 40%, inoculum 10^8, read-out: Minimum Inhibitory Concentration

CC1CCc2cc(F)cc3c(=O)c(C(=O)O)cn1c23 (stereo not drawn) [F]
MIC ([1]; IFO13696, horse serum 0%, inoculum 10^6, read-out: Minimum Inhibitory Concentration): 0.1 µg/mL (≈ 0.383 µM) | MIC ([1]; IFO13696, horse serum 0%, inoculum 10^8, read-out: Minimum Inhibitory Concentration): 0.2 µg/mL (≈ 0.766 µM) | MIC ([1]; IFO13696, horse serum 10%, inoculum 10^6, read-out: Minimum Inhibitory Concentration): 0.2 µg/mL (≈ 0.766 µM) | MIC ([1]; IFO13696, horse serum 10%, inoculum 10^8, read-out: Minimum Inhibitory Concentration): 0.4 µg/mL (≈ 1.53 µM) | MIC ([1]; IFO13696, horse serum 20%, inoculum 10^6, read-out: Minimum Inhibitory Concentration): 0.2 µg/mL (≈ 0.766 µM) | MIC ([1]; IFO13696, horse serum 20%, inoculum 10^8, read-out: Minimum Inhibitory Concentration): 0.2 µg/mL (≈ 0.766 µM) | MIC ([1]; IFO13696, horse serum 40%, inoculum 10^6, read-out: Minimum Inhibitory Concentration): 0.2 µg/mL (≈ 0.766 µM) | MIC ([1]; IFO13696, horse serum 40%, inoculum 10^8, read-out: Minimum Inhibitory Concentration): 0.2 µg/mL (≈ 0.766 µM) | MIC ([2]; IFO12692, horse serum 0%, inoculum 10^6): 0.8 µg/mL (≈ 3.06 µM) | MIC ([2]; IFO12692, horse serum 0%, inoculum 10^8): 0.8 µg/mL (≈ 3.06 µM) | MIC ([2]; IFO12692, horse serum 10%, inoculum 10^6): 0.4 µg/mL (≈ 1.53 µM) | MIC ([2]; IFO12692, horse serum 10%, inoculum 10^8): 0.8 µg/mL (≈ 3.06 µM) | MIC ([2]; IFO12692, horse serum 20%, inoculum 10^6): 1.6 µg/mL (≈ 6.12 µM) | MIC ([2]; IFO12692, horse serum 20%, inoculum 10^8): 0.8 µg/mL (≈ 3.06 µM) | MIC ([2]; IFO12692, horse serum 40%, inoculum 10^6): 1.6 µg/mL (≈ 6.12 µM) | MIC ([2]; IFO12692, horse serum 40%, inoculum 10^8): 1.6 µg/mL (≈ 6.12 µM) | MIC [3, 14]: 0.8 µg/mL (≈ 3.06 µM) | MIC [3, 15]: 0.8 µg/mL (≈ 3.06 µM) | MIC [3, 16]: 0.8 µg/mL (≈ 3.06 µM) | MIC [3, 17]: 0.8 µg/mL (≈ 3.06 µM) | MIC [3, 18]: 0.8 µg/mL (≈ 3.06 µM) | MIC [3, 19]: 0.8 µg/mL (≈ 3.06 µM) | MIC [3, 20]: 1.6 µg/mL (≈ 6.12 µM) | MIC [3, 21]: 1.6 µg/mL (≈ 6.12 µM) | MIC [4, 14]: 50 µg/mL (≈ 191 µM) | MIC [4, 15]: 50 µg/mL (≈ 191 µM) | MIC [4, 16]: 50 µg/mL (≈ 191 µM) | MIC [4, 17]: > 50 µg/mL | MIC [4, 18]: 50 µg/mL (≈ 191 µM) | MIC [4, 19]: > 50 µg/mL | MIC [4, 20]: 50 µg/mL (≈ 191 µM) | MIC [4, 21]: > 50 µg/mL | MIC [5, 14]: 1.6 µg/mL (≈ 6.12 µM) | MIC [5, 15]: 1.6 µg/mL (≈ 6.12 µM) | MIC [5, 16]: 3.1 µg/mL (≈ 11.9 µM) | MIC [5, 17]: 3.1 µg/mL (≈ 11.9 µM) | MIC [5, 18]: 3.1 µg/mL (≈ 11.9 µM) | MIC [5, 19]: 6.3 µg/mL (≈ 24.1 µM) | MIC [5, 20]: 12.5 µg/mL (≈ 47.8 µM) | MIC [5, 21]: 12.5 µg/mL (≈ 47.8 µM) | MIC [6, 14]: 0.8 µg/mL (≈ 3.06 µM) | MIC [6, 15]: 0.8 µg/mL (≈ 3.06 µM) | MIC [6, 16]: 0.8 µg/mL (≈ 3.06 µM) | MIC [6, 17]: 0.8 µg/mL (≈ 3.06 µM) | MIC [6, 18]: 0.8 µg/mL (≈ 3.06 µM) | MIC [6, 19]: 0.8 µg/mL (≈ 3.06 µM) | MIC [6, 20]: 1.6 µg/mL (≈ 6.12 µM) | MIC [6, 21]: 1.6 µg/mL (≈ 6.12 µM) | MIC ([7]; inoculum 1 × 10^6 cells/ml): > 6.3 µg/mL | MIC ([7]; inoculum 1 × 10^8 cells/ml): > 25 µg/mL | MIC ([8]; IFO12979, inoculum 1 × 10^6 cells/ml): 0.2 µg/mL (≈ 0.766 µM) | MIC ([8]; IFO12979, inoculum 1 × 10^8 cells/ml): 0.4 µg/mL (≈ 1.53 µM) | MIC ([9]; FDA209, inoculum 1 × 10^6 cells/ml): 1.6 µg/mL (≈ 6.12 µM) | MIC ([9]; FDA209, inoculum 1 × 10^8 cells/ml): 3.1 µg/mL (≈ 11.9 µM) | MIC ([10]; ATCC10145, inoculum 1 × 10^6 cells/ml): 12.5 µg/mL (≈ 47.8 µM) | MIC ([10]; ATCC10145, inoculum 1 × 10^8 cells/ml): 25 µg/mL (≈ 95.7 µM) | MIC ([11]; NCTC10490, inoculum 1 × 10^6 cells/ml): 12.5 µg/mL (≈ 47.8 µM) | MIC ([11]; NCTC10490, inoculum 1 × 10^8 cells/ml): 25 µg/mL (≈ 95.7 µM) | MIC [12]: > 100 µg/mL | MIC [13]: 0.4 µg/mL (≈ 1.53 µM)
